For this test, the target named is human fatty acid synthase FASN (Homo sapiens (Human), UniProt P49327). Description: Biochemical activity testing of human fatty acid synthase FASN (NADPH fluorescence intensity enzyme assay). The note with it: human recombinant full-length fatty acid synthase. From the text: Biochemical activity testing of human fatty acid synthase FASN
human fatty acid synthase FASN, sequence (P49327 whole entry): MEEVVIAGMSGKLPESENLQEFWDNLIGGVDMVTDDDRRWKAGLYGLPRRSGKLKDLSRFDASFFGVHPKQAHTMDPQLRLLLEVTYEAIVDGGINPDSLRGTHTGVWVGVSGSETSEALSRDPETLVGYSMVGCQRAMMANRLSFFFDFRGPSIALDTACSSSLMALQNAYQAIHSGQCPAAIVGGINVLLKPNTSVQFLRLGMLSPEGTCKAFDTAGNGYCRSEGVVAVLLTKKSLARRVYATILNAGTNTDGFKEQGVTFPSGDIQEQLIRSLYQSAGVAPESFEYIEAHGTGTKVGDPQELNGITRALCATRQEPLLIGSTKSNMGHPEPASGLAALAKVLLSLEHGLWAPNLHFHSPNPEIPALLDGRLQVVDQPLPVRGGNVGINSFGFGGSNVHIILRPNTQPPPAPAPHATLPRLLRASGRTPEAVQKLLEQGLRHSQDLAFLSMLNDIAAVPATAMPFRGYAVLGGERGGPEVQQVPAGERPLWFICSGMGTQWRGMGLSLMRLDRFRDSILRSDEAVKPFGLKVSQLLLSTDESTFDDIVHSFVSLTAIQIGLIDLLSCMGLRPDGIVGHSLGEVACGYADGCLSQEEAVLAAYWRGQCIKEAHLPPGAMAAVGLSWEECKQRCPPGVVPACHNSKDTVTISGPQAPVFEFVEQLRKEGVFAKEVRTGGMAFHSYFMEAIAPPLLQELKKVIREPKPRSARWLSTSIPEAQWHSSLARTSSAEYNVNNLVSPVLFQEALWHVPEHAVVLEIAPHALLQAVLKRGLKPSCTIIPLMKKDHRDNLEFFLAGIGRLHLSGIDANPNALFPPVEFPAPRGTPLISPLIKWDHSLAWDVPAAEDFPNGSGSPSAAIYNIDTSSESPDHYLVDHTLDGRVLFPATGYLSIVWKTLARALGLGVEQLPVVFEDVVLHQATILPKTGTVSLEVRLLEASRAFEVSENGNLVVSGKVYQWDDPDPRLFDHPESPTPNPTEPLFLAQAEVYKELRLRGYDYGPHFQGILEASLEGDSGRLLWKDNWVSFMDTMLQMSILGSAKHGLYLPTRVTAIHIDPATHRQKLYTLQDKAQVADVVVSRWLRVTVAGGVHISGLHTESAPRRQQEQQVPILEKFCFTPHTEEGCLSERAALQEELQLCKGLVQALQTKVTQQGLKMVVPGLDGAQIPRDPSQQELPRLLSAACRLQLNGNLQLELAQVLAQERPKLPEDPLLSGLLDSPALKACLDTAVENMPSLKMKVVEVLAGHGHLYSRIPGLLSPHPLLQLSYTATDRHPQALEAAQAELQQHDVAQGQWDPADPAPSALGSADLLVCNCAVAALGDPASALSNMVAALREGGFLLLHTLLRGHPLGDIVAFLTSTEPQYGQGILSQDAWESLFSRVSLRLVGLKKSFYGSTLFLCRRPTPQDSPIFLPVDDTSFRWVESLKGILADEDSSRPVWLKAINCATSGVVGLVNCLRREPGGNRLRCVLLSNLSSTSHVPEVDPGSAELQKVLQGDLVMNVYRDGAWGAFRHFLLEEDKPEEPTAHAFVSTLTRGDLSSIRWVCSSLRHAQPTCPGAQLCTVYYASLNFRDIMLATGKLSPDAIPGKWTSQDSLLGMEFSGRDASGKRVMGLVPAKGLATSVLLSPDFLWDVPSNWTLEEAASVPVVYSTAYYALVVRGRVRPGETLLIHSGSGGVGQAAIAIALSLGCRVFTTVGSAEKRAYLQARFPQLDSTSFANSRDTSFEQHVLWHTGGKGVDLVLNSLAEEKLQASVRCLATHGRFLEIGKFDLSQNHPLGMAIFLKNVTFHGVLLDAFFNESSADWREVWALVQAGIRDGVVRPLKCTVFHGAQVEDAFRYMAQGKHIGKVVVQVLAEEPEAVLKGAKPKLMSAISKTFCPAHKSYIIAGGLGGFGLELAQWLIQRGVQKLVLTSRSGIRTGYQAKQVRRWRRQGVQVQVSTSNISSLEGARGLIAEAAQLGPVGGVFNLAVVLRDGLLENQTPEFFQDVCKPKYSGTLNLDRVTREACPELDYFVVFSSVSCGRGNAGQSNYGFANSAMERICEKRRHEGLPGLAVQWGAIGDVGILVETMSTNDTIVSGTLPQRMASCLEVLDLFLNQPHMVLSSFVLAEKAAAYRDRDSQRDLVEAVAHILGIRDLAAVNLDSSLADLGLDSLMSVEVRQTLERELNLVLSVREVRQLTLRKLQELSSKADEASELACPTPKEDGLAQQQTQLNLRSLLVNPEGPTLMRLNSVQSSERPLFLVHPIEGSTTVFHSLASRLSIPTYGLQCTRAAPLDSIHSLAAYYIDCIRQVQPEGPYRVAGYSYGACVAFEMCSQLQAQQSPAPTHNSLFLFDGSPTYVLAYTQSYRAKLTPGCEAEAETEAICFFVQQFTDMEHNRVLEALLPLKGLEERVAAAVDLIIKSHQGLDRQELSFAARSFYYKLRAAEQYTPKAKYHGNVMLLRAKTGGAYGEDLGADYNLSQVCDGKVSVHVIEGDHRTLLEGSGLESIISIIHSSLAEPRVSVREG
Fatty acid synthase FASN is a multifunctional enzyme with seven catalytic activities thereby synthesising long chain fatty acids especially palmitoyl-CoA in the presence of co-factor NADPH starting from the substrates acetyl-CoA and malonyl-CoA. The reductive synthesis is realized by the oxidation of NADPH to NADP. Since NADPH has a high fluorescence intensity quantum yield compared to NADP with excitation at 340 nm and emission at 460 nm, the reaction can be monitored via the decrease in fluorescence intensity. The biochemical FASN activity testing was performed as 384 well two-time-point kinetic fluorescence intensity assay format in Greiner low volume medium binding 384-well black microtiter plates in a total assay volume of 8 μl and was used for high throughput screen. In each well 3 μl 40 nM human recombinant full-length fatty acid synthase (produced in-house in SF9 cells) were dispensed in the following assay buffer: 50 mM potassium phosphate buffer pH 7.0, 0.005% (w/v) BSA, 2 mM Glutathione, 0.02% Tween-20. Then 2 μl of 200 μM NADPH in assay buffer were added, followed by the addition of the test compounds in 10 dilution concentrations starting with 30 μM (final concentration) to get a final DMSO content of 1% (v/v). The mixture was incubated for at least 15 min at room temperature. After the pre-incubation the enzymatic reaction was started by the addition of 2 μl substrate solution (80 μM acetyl-CoA, 240 μM malonyl-CoA). A first fluorescence intensity measurement (time point one) was performed with an Envision multimode reader (Perkin Elmer LAS Germany GmbH) at excitation wavelength 340 nm (lamp mode) and emission wavelength 460 nm. The reaction was incubated for 30 minutes at room temperature. After this the fluorescence intensity was measured again in the Envision using the same parameters as described above (second time point measurement). The data were analysed by subtracting the first time point measurement value from the second time point measurement value (after the enzymatic reaction). The differences of the emission signals were determined. These reflect directly the conversion rate of NADPH. The full value used was the inhibitor-free reaction. A pharmacological zero value was used like GSK837149A (Sigma-Aldrich) in a final concentration of 5-10 μM. The inhibitory values (IC50) were determined using either the program Symyx Assay Explorer® or Condosseo® from GeneData.
As for `CCC(=O)N[C@H]1CC[C@@H](N(C)C(=O)c2ccc(-c3nc4ccccc4o3)cc2)C1` [Compound A1, 4-benzoxazol-2-yl-N-methyl-N-((1R,3S)-3-propionylamino-cyclopentyl)-benzamide], the IC50 (in general, the concentration needed to halve the response being measured) is below 300 nM.

As to `CN(C(=O)c1ccc(-c2nc3ccccc3o2)cc1)[C@@H]1CC[C@H](NC(=O)C2CC2)C1` [Compound A2, 4-benzoxazol-2-yl-N-[(1R,3S)-3-(cyclopropanecarbonyl-amino)-cyclopentyl]-N-methyl-benzamide], the IC50 was below 300 nM. As to `CN(C(=O)c1ccc(-c2nc3ccccc3o2)cc1)[C@@H]1CC[C@H](NC(=O)C2(C)CC2)C1` [Compound A3, 4-benzoxazol-2-yl-N-methyl-N-{(1R,3S)-3-[(1-methyl-cyclopropanecarbonyl)-amino]-cyclopentyl}-benzamide], the IC50 is below 300 nM. On to `CCC(=O)N[C@H]1CC[C@@H](N(C)C(=O)c2ccc(-c3ccncc3)cc2)C1` [Compound A4, N-methyl-N-((1R,3S)-3-propionylamino-cyclopentyl)-4-pyridin-4-yl-benzamide], for which the IC50 was below 300 nM. As for `CCC(=O)N[C@H]1CC[C@@H](N(C)C(=O)c2ccc(-c3ccc(Cl)cc3)cc2)C1` [Compound A5, 4′-chloro-biphenyl-4-carboxylic acid methyl-((1R,3S)-3-propionylamino-cyclopentyl)-amide], the IC50 is below 300 nM.

On to `CCC(=O)N[C@H]1CC[C@@H](N(C)C(=O)c2ccc(-c3nc4ccccc4s3)cc2)C1` [Compound A6, 4-benzothiazol-2-yl-N-methyl-N-((1R,3S)-3-propionylamino-cyclopentyl)-benzamide], for which the IC50 was below 300 nM. With `CCC(=O)N[C@H]1CC[C@@H](N(C)C(=O)c2ccc(-c3nc4ccccc4[nH]3)cc2)C1` [Compound A7, 4-(1H-benzimidazol-2-yl)-N-methyl-N-((1R,3S)-3-propionylamino-cyclopentyl)-benzamide], the IC50 was below 300 nM. In the case of `CCC(=O)N[C@H]1CC[C@@H](N(C)C(=O)c2ccc(-c3ccccc3)cc2)C1` [Compound A8, biphenyl-4-carboxylic acid methyl-((1R,3S)-3-propionylamino-cyclopentyl)-amide], the IC50 was below 300 nM. Take `CCC(=O)N[C@H]1CC[C@@H](N(C)C(=O)c2ccc(-c3nc4cc(Cl)ccc4o3)cc2)C1` [Compound A9, 4-(5-chloro-benzoxazol-2-yl)-N-methyl-N-((1R,3S)-3-propionylamino-cyclopentyl)-benzamide]: the concentration for half-maximal inhibition (IC50) was below 300 nM. Regarding `CCC(=O)N[C@H]1CC[C@@H](N(C)C(=O)c2ccc(-c3cn4cccnc4n3)cc2)C1` [Compound A10, 4-imidazo[1,2-a]pyrimidin-2-yl-N-methyl-N-((1R,3S)-3-propionylamino-cyclopentyl)-benzamide], the 50% inhibitory concentration (IC50) is below 300 nM. The value for `CCC(=O)N[C@H]1CC[C@@H](N(C)C(=O)c2ccc(-c3ncc[nH]3)cc2)C1` [Compound A11, 4-(1H-imidazol-2-yl)-N-methyl-N-((1R,3S)-3-propionylamino-cyclopentyl)-benzamide] was 3000 to 50000 nM; that for `CCC(=O)N[C@H]1CC[C@@H](N(C)C(=O)c2ccc(-c3ccc(C#N)cc3)cc2)C1` [Compound A12, 4′-cyano-biphenyl-4-carboxylic acid methyl-((1R,3S)-3-propionylamino-cyclopentyl)-amide] was below 300 nM; that for `CCC(=O)N[C@H]1CC[C@@H](N(C)C(=O)c2ccc(-c3nc4ccccc4o3)c(OC)c2)C1` [Compound A13, 4-benzoxazol-2-yl-3-methoxy-N-methyl-N-((1R,3S)-3-propionylamino-cyclopentyl)-benzamide] was below 300 nM.

Take `CCC(=O)N[C@H]1CC[C@@H](N(C)C(=O)c2ccc(C#Cc3ccc(Cl)cc3)cc2)C1` [Compound A14, 4-(4-chloro-phenylethynyl)-N-methyl-N-((1R,3S)-3-propionylamino-cyclopentyl)-benzamide]: the IC50 is below 300 nM.

On to `CCC(=O)N[C@H]1CC[C@@H](N(C)C(=O)c2ccc(C#Cc3ccncc3)cc2)C1` [Compound A15, N-methyl-N-((1R,3S)-3-propionylamino-cyclopentyl)-4-pyridin-4-ylethynyl-benzamide], for which the IC50 is below 300 nM.

With `CCC(=O)N[C@H]1CC[C@@H](N(C)C(=O)c2ccc(-c3nc4ccccc4o3)cn2)C1` [Compound A16, 5-benzoxazol-2-yl-pyridine-2-carboxylic acid methyl-((1R,3S)-3-propionylamino-cyclopentyl)-amide], the IC50 is below 300 nM. Regarding `CC(C)C(=O)N[C@H]1CC[C@@H](N(C)C(=O)c2ccc(-c3nc4ccccc4o3)cc2)C1` [Compound A17, 4-benzoxazol-2-yl-N-((1R,3S)-3-isobutyrylamino-cyclopentyl)-N-methyl-benzamide], the IC50 was below 300 nM.

With `CC(=O)N[C@H]1CC[C@@H](N(C)C(=O)c2ccc(-c3nc4ccccc4o3)cc2)C1` [Compound A18, N-((1R,3S)-3-acetylamino-cyclopentyl)-4-benzooxazol-2-yl-N-methyl-benzamide], the IC50 was below 300 nM.

For `CC(C)CCC(=O)N[C@H]1CC[C@@H](N(C)C(=O)c2ccc(-c3nc4ccccc4o3)cc2)C1` [Compound A19, 4-benzoxazol-2-yl-N-methyl-N-[(1R,3S)-3-(4-methyl-pentanoylamino)-cyclopentyl]-benzamide], the IC50 was below 300 nM.

In the case of `CN(C(=O)c1ccc(-c2nc3ccccc3o2)cc1)[C@@H]1CC[C@H](NC(=O)c2ccccc2)C1` [Compound A20, 4-benzoxazol-2-yl-N-((1R,3S)-3-benzoylamino-cyclopentyl)-N-methyl-benzamide], the IC50 fell in the range of 300 to 3000 nM.

`CN(C(=O)c1ccc(-c2nc3ccccc3o2)cc1)[C@@H]1CC[C@H](NC(=O)C2CCCC2)C1` [Compound A21, 4-benzoxazol-2-yl-N-[(1R,3S)-3-(cyclopentanecarbonyl-amino)-cyclopentyl]-N-methyl-benzamide]: the IC50 is below 300 nM. For the compound `CN(C(=O)c1ccc(-c2nc3ccccc3o2)cc1)[C@@H]1CC[C@H](NC(=O)c2ccncc2)C1` [Compound A22, N-{(1S,3R)-3-[(4-benzoxazol-2-yl-benzoyl)-methyl-amino]-cyclopentyl}-isonicotinamide], the IC50 lay within 300 to 3000 nM. Take `CN(C(=O)c1ccc(-c2nc3ccccc3o2)cc1)[C@@H]1CC[C@H](NC(=O)Cc2ccccc2)C1` [Compound A23, 4-benzoxazol-2-yl-N-methyl-N-((1R,3S)-3-phenylacetylamino-cyclopentyl)-benzamide]: the IC50 was below 300 nM.

As to `CCCCC(=O)N[C@H]1CC[C@@H](N(C)C(=O)c2ccc(-c3nc4ccccc4o3)cc2)C1` [Compound A24, 4-benzoxazol-2-yl-N-methyl-N-((1R,3S)-3-pentanoylamino-cyclopentyl)-benzamide], the IC50 was below 300 nM.

Take `CN(C(=O)c1ccc(-c2nc3ccccc3o2)cc1)[C@@H]1CC[C@H](NC(=O)C(F)(F)C(F)(F)F)C1` [Compound A25, 4-benzoxazol-2-yl-N-methyl-N-[(1R,3S)-3-(2,2,3,3,3-pentafluoro-propionylamino)-cyclopentyl]-benzamide]: the half-inhibitory concentration (IC50) fell in the range of 300 to 3000 nM. As to `CCC(C)CC(=O)N[C@H]1CC[C@@H](N(C)C(=O)c2ccc(-c3nc4ccccc4o3)cc2)C1` (stereo partly drawn) [Compound A26, 4-benzoxazol-2-yl-N-methyl-N-[(1R,3S)-3-(3-methyl-pentanoylamino)-cyclopentyl]-benzamide], the IC50 is below 300 nM.

As for `CCC(F)(F)C(=O)N[C@H]1CC[C@@H](N(C)C(=O)c2ccc(-c3nc4ccccc4o3)cc2)C1` [Compound A27, 4-benzoxazol-2-yl-N-[(1R,3S)-3-(2,2-difluoro-butyrylamino)-cyclopentyl]-N-methyl-benzamide], the IC50 was below 300 nM.

As to `CC[C@H](C)CC(=O)N[C@H]1CC[C@@H](N(C)C(=O)c2ccc(-c3nc4ccccc4o3)cc2)C1` [Compound A30, 4-benzoxazol-2-yl-N-methyl-N-[(1R,3S)-3-((S)-3-methyl-pentanoylamino)-cyclopentyl]-benzamide], the IC50 was below 300 nM.

Consider `CC[C@@H](C)CC(=O)N[C@H]1CC[C@@H](N(C)C(=O)c2ccc(-c3nc4ccccc4o3)cc2)C1` [Compound A31, 4-benzoxazol-2-yl-N-methyl-N-[(1R,3S)-3-((R)-3-methyl-pentanoylamino)-cyclopentyl]-benzamide], for which the half-inhibitory concentration (IC50) is below 300 nM. For the compound `CO[C@H](C)C(=O)N[C@H]1CC[C@@H](N(C)C(=O)c2ccc(-c3nc4ccccc4o3)cc2)C1` [Compound A32, 4-benzoxazol-2-yl-N-[(1R,3S)-3-((R)-2-methoxy-propionylamino)-cyclopentyl]-N-methyl-benzamide], the 50% inhibitory concentration (IC50) lay in the range of 300 to 3000 nM.

(Values after US9670142B2, “1,3-diaminocyclopentane carboxamide derivatives” (Merck Patent GmbH, priority 2013, dated 2017).)
